Measured values reported in patent publication US20260152503A1, “SPIROBICYCLIC COMPOUNDS” (ACERAND THERAPEUTICS (HONG KONG) LIMITED, priority 2022, published 2026).

How the values were obtained:
Assay type in all cases: cell-based
FGFR2 = biological target: T1, FGFR2 (Homo sapiens, UniProt P21802, K310R/N549K); experiment: pERK potency assay (In Cell ELISA), AN3CA cells; conditions: for IC50: pERK, AN3CA (FGFR2/k310R, N549K) cells, 3 hours; for FGFR1 IC50/FGFR2 IC50 / FGFR3 IC50/FGFR2 IC50: selectivity ratio, pERK potency; for FGFR1 IC50/FGFR2 IC50: FGFR2 relative to FGFR1; for FGFR3 IC50/FGFR2 IC50: FGFR2 relative to FGFR3
T1 construct: in FGFR aberrations of AN3CA (FGFR2/k310R, N549K); host or cells: AN3CA
From the text: (§1) The purpose of this assay is to measure the ability of test compounds to inhibit FGFR mediated downstream signaling cascades, i.e., ERK phosphorylation in cells with FGFR aberrations. FGFR aberrations become constitutively active and thus induces cascades of cellular signaling events that result in increased phosphorylation of ERK at Threonine 202 and Tyrosine 204 (pERK). The procedure called In Cell ELISA described below measures the level of cellular pERK in response to FGFR specific inhibitor compounds in FGFR aberrations of AN3CA (FGFR2/k310R, N549K), DMS114 (FGFR1 amplification), RT112 (FGFR3 overexpression/FGFR3-TACC3 fusion) and Hep3B (FGF19 amplification) cells. AN3CA, DMS114 and Hep3B cells are from ATCC. RT112 cells are from Sigma. DMS114 cells are grown and maintained using RPMI-1640 medium supplemented with 10% heat-inactivated fetal bovine serum. AN3CA, Hep3B and RT112 cells are grown and maintained using DMEM supplemented with 10% heat-inactivated fetal bovine serum. On the day before test compound addition, cells are plated in poly-D-lysine coated 96-well cell culture plates (Corning® BioCoat® Cat #356640) at 40000 cells/well/100 μL and grown overnight in a 37° C., 5% CO2 incubator. Test compounds are prepared with 4-fold serial dilutions in DMSO, with a top concentration of 10 μM. On the day of the assay, 50 μL of test compound diluted in media was added to each well of cell culture plate with the final concentration of compounds spanning from 0.000038 μM to 10 μM. After compound addition, cells are incubated for 3 hours at 37° C., 5% CO2 and then the culture medium is removed. Cells are fixed with 4% formaldehyde in phosphate-buffered saline (PBS) and incubated at RT for 20 min. The plate is then washed three times with PBST (PBS with 0.05% tween-20), followed by the incubation with 100 μL of pre-cooled methanol at −20° C. for 20 min. After incubation, methanol is removed, and the plate is washed once with PBST. Cells are permeabilized with 100 µL/well of 0.1% Triton X-100 in PBS at RT for 20 min and then quenched with quenching buffer (PBST containing 1% H2O2 and 0.1% sodium azide) for 20 min at RT with gentle shaking. After washing once with PBST, blocking buffer (250 ul/well, Pierce™ Protein-Free-PBS Blocking Buffer, Cat #37572) was then added to the cells for 1-h incubation at RT, followed by anti-pERK antibody (cell signaling, 1:1000 dilution in 5% BSA in PBST) incubation overnight at 4° C. and secondary antibody-HRP (Jackson immunoresearch, 1:3000 dilution in 5% BSA in PBST) incubation at RT for 1 h. PBST wash is carried out after each step three times. Before the addition of the substrate (Advansta ELISABright), the plate is washed with PBS twice to remove detergent residues. Cellular pERK level is determined using the microplate reader (Biotek Synergy H1) to detect the chemiluminescence signal. IC50 is determined by fitting a 4-parameter sigmoidal concentration-response model. FGFR wild type cells (H1975, PC-9 and AGS) are used to serve as negative control (FGFR selectivity) with the same assay procedures described above.

FGFR1 = biological target: T2, FGFR1 (Homo sapiens, UniProt P11362); experiment: pERK potency assay (In Cell ELISA), DMS114 cells; conditions: DMS114 (FGFR1 amplification) cells, 3 hours
T2 construct: DMS114 (FGFR1 amplification); host or cells: DMS114
From the text: as §1

FGFR3 = biological target: T3, FGFR3 (Homo sapiens, UniProt P22607); experiment: pERK potency assay (In Cell ELISA), RT112 cells; conditions: RT112 (FGFR3 overexpression/FGFR3-TACC3 fusion) cells, 3 hours
T3 construct: RT112 (FGFR3 overexpression/FGFR3-TACC3 fusion); host or cells: RT112; the other entry of the earlier key: TACC3 (Q9Y6A5, Transforming acidic coiled-coil-containing protein 3)
From the text: as §1

T2 sequence (P11362 22-822): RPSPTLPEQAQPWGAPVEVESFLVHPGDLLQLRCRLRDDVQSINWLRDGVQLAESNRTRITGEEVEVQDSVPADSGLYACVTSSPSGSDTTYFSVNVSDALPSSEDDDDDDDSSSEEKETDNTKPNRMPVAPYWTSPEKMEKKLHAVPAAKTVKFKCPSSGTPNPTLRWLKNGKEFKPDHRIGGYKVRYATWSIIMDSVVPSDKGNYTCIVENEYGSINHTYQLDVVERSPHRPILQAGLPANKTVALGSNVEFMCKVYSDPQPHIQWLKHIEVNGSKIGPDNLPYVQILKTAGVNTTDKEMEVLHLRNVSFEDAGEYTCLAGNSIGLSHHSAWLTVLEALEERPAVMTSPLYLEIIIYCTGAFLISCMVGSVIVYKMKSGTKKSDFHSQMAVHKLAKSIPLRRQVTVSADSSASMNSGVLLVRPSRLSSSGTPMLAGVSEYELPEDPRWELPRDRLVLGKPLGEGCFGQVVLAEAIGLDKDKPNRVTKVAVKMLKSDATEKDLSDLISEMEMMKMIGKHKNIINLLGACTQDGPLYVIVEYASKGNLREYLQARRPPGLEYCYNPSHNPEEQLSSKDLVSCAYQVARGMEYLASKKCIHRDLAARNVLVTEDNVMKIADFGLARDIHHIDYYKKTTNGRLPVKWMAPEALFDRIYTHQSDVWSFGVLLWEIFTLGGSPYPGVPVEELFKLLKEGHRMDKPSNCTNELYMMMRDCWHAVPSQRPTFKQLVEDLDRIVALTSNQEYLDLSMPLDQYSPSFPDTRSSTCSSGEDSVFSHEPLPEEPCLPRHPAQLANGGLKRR
T1 sequence (P21802 22-821 K310R/N549K): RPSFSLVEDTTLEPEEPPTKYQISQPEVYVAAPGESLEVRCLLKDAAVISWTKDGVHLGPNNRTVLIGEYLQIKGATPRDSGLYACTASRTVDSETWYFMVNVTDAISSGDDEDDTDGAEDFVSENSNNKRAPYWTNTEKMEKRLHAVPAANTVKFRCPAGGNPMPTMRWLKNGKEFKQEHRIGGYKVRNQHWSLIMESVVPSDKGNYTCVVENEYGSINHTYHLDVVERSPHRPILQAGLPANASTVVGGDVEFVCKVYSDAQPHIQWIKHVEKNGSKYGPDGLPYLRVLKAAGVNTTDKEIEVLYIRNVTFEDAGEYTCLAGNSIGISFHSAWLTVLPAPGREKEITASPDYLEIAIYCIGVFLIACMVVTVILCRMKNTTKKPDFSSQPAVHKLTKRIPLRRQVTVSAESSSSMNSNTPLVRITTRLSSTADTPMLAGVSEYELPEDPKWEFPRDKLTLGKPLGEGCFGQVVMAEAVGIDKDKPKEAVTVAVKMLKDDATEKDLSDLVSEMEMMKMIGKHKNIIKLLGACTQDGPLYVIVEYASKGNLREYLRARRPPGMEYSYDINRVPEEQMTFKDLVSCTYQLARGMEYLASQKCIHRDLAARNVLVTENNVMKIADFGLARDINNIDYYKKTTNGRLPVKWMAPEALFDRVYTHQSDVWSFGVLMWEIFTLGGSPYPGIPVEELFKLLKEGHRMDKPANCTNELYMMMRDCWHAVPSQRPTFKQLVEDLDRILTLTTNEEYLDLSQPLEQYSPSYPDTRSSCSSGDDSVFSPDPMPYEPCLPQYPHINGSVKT

Row | Structure (SMILES) | IC50 (FGFR2) [nM] | IC50 (FGFR1) [nM] | IC50 (FGFR3) [nM] | FGFR3 IC50/FGFR2 IC50 (FGFR2; given as numeric bound) | FGFR1 IC50/FGFR2 IC50 (FGFR2) | FGFR3 IC50/FGFR2 IC50 (FGFR2)
1 | C=CC(=O)N1CC2(CC(c3c(-c4ccc(Oc5ncccn5)cc4)c4c(N)ncnc4n3C)C2)C1 [Example 3, 1-(6-(4-amino-7-methyl-5-(4-(pyrimidin-2-yloxy)phenyl)-7H-pyrrolo[2,3-d]pyrimidin-6-yl)-2-azaspiro[3.3]heptan-2-yl)prop-2-en-1-one] | > 100 | > 100 | > 100 |  |  | 
2 | C=CC(=O)N1CCC2(CCC(c3c(-c4ccc(Oc5ncccn5)cc4)c4c(N)ncnc4n3C)CC2)CC1 [Example 6, 1-(9-(4-amino-7-methyl-5-(4-(pyrimidin-2-yloxy)phenyl)-7H-pyrrolo[2,3-d]pyrimidin-6-yl)-3-azaspiro[5.5]undecan-3-yl)prop-2-en-1-one] | > 100 | > 100 | > 100 |  |  | 
3 | C=CC(=O)N1CCC2(CC=C(c3c(-c4ccnn4C)c4c(N)ncnc4n3C)CC2)CC1 [Example 13, 1-(9-(4-amino-7-methyl-5-(1-methyl-1H-pyrazol-5-yl)-7H-pyrrolo[2,3-d]pyrimidin-6-yl)-3-azaspiro[5.5]undec-8-en-3-yl)prop-2-en-1-one] | > 100 | > 100 | > 100 |  |  | 
4 | C=CC(=O)N1CCC2(CC=C(c3c(C(C)C)c4c(N)ncnc4n3C)CC2)CC1 [Example 15, 1-(9-(4-amino-5-isopropyl-7-methyl-7H-pyrrolo[2,3-d]pyrimidin-6-yl)-3-azaspiro[5.5]undec-8-en-3-yl)prop-2-en-1-one] | 10 to 30 | > 100 | > 100 |  |  | F (a selectivity ratio greater than 50 but less than or equal to 150)
5 | C=CC(=O)N1CCC2(CC=C(c3c(-c4ccc(OCCN5CCCC5)cc4)c4c(N)ncnc4n3C)CC2)CC1 [Example 20, 1-(9-(4-amino-7-methyl-5-(4-(2-(pyrrolidin-1-yl)ethoxy)phenyl)-7H-pyrrolo[2,3-d]pyrimidin-6-yl)-3-azaspiro[5.5]undec-8-en-3-yl)prop-2-en-1-one] | 30 to 100 | > 100 | > 100 |  |  | F (a selectivity ratio greater than 50 but less than or equal to 150)
6 | C=CC(=O)N1CCC2(CC=C(c3c(-c4ccc(OC5CC(C)C5)nc4)c4c(N)ncnc4n3C)CC2)CC1 (centres unmarked) [Example 25, 1-(9-(4-amino-7-methyl-5-(6-(3-methylcyclobutoxy)pyridin-3-yl)-7H-pyrrolo[2,3-d]pyrimidin-6-yl)-3-azaspiro[5.5]undec-8-en-3-yl)prop-2-en-1-one] | 1 to 10 | 30 to 100 | > 100 |  |  | F (a selectivity ratio greater than 50 but less than or equal to 150)
7 | C=CC(=O)N1CCC2(CC=C(c3c(-c4ccnnc4)c4c(N)ncnc4n3C)CC2)CC1 [Example 31, 1-(9-(4-amino-7-methyl-5-(pyridazin-4-yl)-7H-pyrrolo[2,3-d]pyrimidin-6-yl)-3-azaspiro[5.5]undec-8-en-3-yl)prop-2-en-1-one] | > 100 | > 100 | > 100 |  |  | 
8 | C=CC(=O)N1CCC2(CC=C(c3c(-c4cncnc4)c4c(N)ncnc4n3C)CC2)CC1 [Example 32, 1-(9-(4-amino-7-methyl-5-(pyrimidin-5-yl)-7H-pyrrolo[2,3-d]pyrimidin-6-yl)-3-azaspiro[5.5]undec-8-en-3-yl)prop-2-en-1-one] | 30 to 100 | > 100 | > 100 |  | F (a selectivity ratio greater than 50 but less than or equal to 150) | G (a selectivity ratio greater than 150 but less than or equal to 500)

Now from value to molecule, other results behind:

Row | IC50 (FGFR2) [nM] | IC50 (FGFR1) [nM] | IC50 (FGFR3) [nM] | FGFR3 IC50/FGFR2 IC50 (FGFR2; given as numeric bound) | Structure (SMILES) | FGFR1 IC50/FGFR2 IC50 (FGFR2) | FGFR3 IC50/FGFR2 IC50 (FGFR2)
9 | 1 to 10 | > 100 | > 100 |  | C=CC(=O)N1CC2(CC=C(c3c(-c4ccc(Oc5ncccn5)cc4)c4c(N)ncnc4n3C)CC2)C1 [Example 1, 1-(7-(4-amino-7-methyl-5-(4-(pyrimidin-2-yloxy)phenyl)-7H-pyrrolo[2,3-d]pyrimidin-6-yl)-2-azaspiro[3.5]non-6-en-2-yl)prop-2-en-1-one] | I (a selectivity ratio greater than 1000 but less than or equal to 2000) | F (a selectivity ratio greater than 50 but less than or equal to 150)
10 | 10 to 30 | > 100 | > 100 |  | C=CC(=O)NC1CC2(CC=C(c3c(-c4ccc(OC)cc4)c4c(N)ncnc4n3C)CC2)C1 (centres unmarked) [Example 7, N-(7-(4-amino-5-(4-methoxyphenyl)-7-methyl-7H-pyrrolo[2,3-d]pyrimidin-6-yl)spiro[3.5]non-6-en-2-yl)acrylamide] |  | 
11 | 10 to 30 | > 100 | > 100 | <50 | C=CC(=O)NC1CC2(CC=C(c3c(-c4ccc(Oc5ncccn5)cc4)c4c(N)ncnc4n3C)CC2)C1 (centres unmarked) [Example 9, N-(7-(4-amino-7-methyl-5-(4-(pyrimidin-2-yloxy)phenyl)-7H-pyrrolo[2,3-d]pyrimidin-6-yl)spiro[3.5]non-6-en-2-yl)acrylamide] | F (a selectivity ratio greater than 50 but less than or equal to 150) | 
12 | 10 to 30 | > 100 | > 100 |  | C=CC(=O)N1CCC2(CC=C(c3c(-c4cccnc4)c4c(N)ncnc4n3C)CC2)CC1 [Example 12, 1-(9-(4-amino-7-methyl-5-(pyridin-3-yl)-7H-pyrrolo[2,3-d]pyrimidin-6-yl)-3-azaspiro[5.5]undec-8-en-3-yl)prop-2-en-1-one] | G (a selectivity ratio greater than 150 but less than or equal to 500) | H (a selectivity ratio greater than 500 but less than or equal to 1000)
13 | 1 to 10 | > 100 | > 100 |  | C=CC(=O)N1CCC2(CC=C(c3c(-c4cncc(F)c4)c4c(N)ncnc4n3C)CC2)CC1 [Example 27, 1-(9-(4-amino-5-(5-fluoropyridin-3-yl)-7-methyl-7H-pyrrolo[2,3-d]pyrimidin-6-yl)-3-azaspiro[5.5]undec-8-en-3-yl)prop-2-en-1-one] | F (a selectivity ratio greater than 50 but less than or equal to 150) | H (a selectivity ratio greater than 500 but less than or equal to 1000)
14 | ≤ 1 | > 100 | > 100 |  | C=CC(=O)N1CCC2(CC=C(c3c(-c4ccc(OC)nc4)c4c(N)ncnc4n3C)CC2)CC1 [Example 30, 1-(9-(4-amino-5-(6-methoxypyridin-3-yl)-7-methyl-7H-pyrrolo[2,3-d]pyrimidin-6-yl)-3-azaspiro[5.5]undec-8-en-3-yl)prop-2-en-1-one] | G (a selectivity ratio greater than 150 but less than or equal to 500) | H (a selectivity ratio greater than 500 but less than or equal to 1000)
15 | 1 to 10 | > 100 | > 100 |  | C=CC(=O)N1CCC2(CC=C(c3c(-c4ncccn4)c4c(N)ncnc4n3C)CC2)CC1(C)C (centres unmarked) [Example 34, 1-(9-(4-amino-7-methyl-5-(pyrimidin-2-yl)-7H-pyrrolo[2,3-d]pyrimidin-6-yl)-2,2-dimethyl-3-azaspiro[5.5]undec-8-en-3-yl)prop-2-en-1-one] | H (a selectivity ratio greater than 500 but less than or equal to 1000) | J (a selectivity ratio greater than 2000)
